Measurements reported in PMC10218596 (International Journal of Molecular Sciences, 2023).

Key:
Type in all cases: cell-based
h[α6M112V/α3]β4 = biological target: T1, h[α6M112V/α3]β4 (Homo sapiens, UniProt P30926+P32297+Q15825, M145V); settings: ACh on h[α6M112V/α3]β4
T1 construct: formed by splicing the N-terminal extracellular domain of the α6 subunit with the α3 subunit; fusion partner: remainder of the human α3 subunit (CHRNA3); expressed in transfected cells; host or cells: Xenopus laevis oocytes injected with cRNA

h[α6V32L, K61R/α3]β4 = biological target: T2, h[α6V32L, K61R/α3]β4 (Homo sapiens, UniProt P30926+P32297+Q15825, K94R/V65L); settings: ACh on h[α6V32L
T2 construct: formed by splicing the N-terminal extracellular domain of the α6 subunit with the α3 subunit; fusion partner: remainder of the human α3 subunit (CHRNA3); expressed in transfected cells; host or cells: Xenopus laevis oocytes injected with cRNA

[1] = biological target: T3, h[α6V32L, K61R/α3]β4L107V,V115I (Homo sapiens, UniProt P30926+P32297+Q15825, K94R/L133V/V141I/V65L); settings: ACh on h[α6V32L
T3 construct: formed by splicing the N-terminal extracellular domain of the α6 subunit with the α3 subunit; fusion partner: remainder of the human α3 subunit (CHRNA3); expressed in transfected cells; host or cells: Xenopus laevis oocytes injected with cRNA

h[α6R63C/α3]β4 = biological target: T4, h[α6R63C/α3]β4 (Homo sapiens, UniProt P30926+P32297+Q15825, R96C); settings: ACh on h[α6R63C/α3]β4
T4 construct: formed by splicing the N-terminal extracellular domain of the α6 subunit with the α3 subunit; human nAChR α3 subunit (CHRNA3); expressed in transfected cells; host or cells: Xenopus laevis oocytes injected with cRNA (plasmids from the University of Utah)

h[α6N58K/α3]β4 = biological target: T5, h[α6N58K/α3]β4 (Homo sapiens, UniProt P30926+P32297+Q15825, N91K); experiment: Electrophysiological assay, ACh concentration-response (Xenopus oocytes); settings: ACh on h[α6N58K/α3]β4
T5 construct: formed by splicing the N-terminal extracellular domain of the α6 subunit with the α3 subunit; human nAChR α3 subunit (CHRNA3); expressed in transfected cells; host or cells: Xenopus laevis oocytes injected with cRNA (plasmids from the University of Utah)

h[α6N110D/α3]β4 = biological target: T6, h[α6N110D/α3]β4 (Homo sapiens, UniProt P30926+P32297+Q15825, N143D); experiment: as above; settings: ACh on h[α6N110D/α3]β4
T6 construct: formed by splicing the N-terminal extracellular domain of the α6 subunit with the α3 subunit; fusion partner: remainder of the human α3 subunit (CHRNA3); expressed in transfected cells; host or cells: Xenopus laevis oocytes injected with cRNA
T6 sequence (Q15825+P32297 fused with the stated changes): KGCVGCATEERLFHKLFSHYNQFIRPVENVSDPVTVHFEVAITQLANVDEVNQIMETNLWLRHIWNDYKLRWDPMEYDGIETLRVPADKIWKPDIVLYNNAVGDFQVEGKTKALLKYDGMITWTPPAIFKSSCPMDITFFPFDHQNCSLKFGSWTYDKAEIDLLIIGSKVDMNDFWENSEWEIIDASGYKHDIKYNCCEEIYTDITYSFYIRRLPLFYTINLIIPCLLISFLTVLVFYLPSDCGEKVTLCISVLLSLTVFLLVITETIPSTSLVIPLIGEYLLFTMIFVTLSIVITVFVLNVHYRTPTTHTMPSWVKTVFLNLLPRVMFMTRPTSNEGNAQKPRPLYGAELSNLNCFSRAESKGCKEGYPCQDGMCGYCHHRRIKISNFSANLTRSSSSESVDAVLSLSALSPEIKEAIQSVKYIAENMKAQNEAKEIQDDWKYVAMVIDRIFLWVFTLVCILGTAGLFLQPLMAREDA
T6 sequence (P30926 22-498): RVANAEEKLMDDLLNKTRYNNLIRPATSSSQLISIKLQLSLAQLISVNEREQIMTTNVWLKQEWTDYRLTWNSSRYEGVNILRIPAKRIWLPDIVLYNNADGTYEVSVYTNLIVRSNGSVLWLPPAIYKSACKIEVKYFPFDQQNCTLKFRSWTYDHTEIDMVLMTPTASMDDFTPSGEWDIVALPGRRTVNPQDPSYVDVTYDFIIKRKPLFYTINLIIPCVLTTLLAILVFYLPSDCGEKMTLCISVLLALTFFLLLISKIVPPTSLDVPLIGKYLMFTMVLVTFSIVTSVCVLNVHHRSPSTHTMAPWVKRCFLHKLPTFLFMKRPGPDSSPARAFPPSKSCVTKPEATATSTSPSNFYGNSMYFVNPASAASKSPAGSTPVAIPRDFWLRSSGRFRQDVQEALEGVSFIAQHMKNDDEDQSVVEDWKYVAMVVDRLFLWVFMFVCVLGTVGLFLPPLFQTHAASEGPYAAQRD

h[α6I176V/α3]β4 = biological target: T7, h[α6I176V/α3]β4 (Homo sapiens, UniProt P30926+P32297+Q15825, I209V); experiment: as above; settings: ACh on h[α6I176V/α3]β4
T7 construct: formed by splicing the N-terminal extracellular domain of the α6 subunit with the α3 subunit; fusion partner: remainder of the human α3 subunit (CHRNA3); expressed in transfected cells; host or cells: Xenopus laevis oocytes injected with cRNA
T7 sequence (Q15825+P32297 fused with the stated changes): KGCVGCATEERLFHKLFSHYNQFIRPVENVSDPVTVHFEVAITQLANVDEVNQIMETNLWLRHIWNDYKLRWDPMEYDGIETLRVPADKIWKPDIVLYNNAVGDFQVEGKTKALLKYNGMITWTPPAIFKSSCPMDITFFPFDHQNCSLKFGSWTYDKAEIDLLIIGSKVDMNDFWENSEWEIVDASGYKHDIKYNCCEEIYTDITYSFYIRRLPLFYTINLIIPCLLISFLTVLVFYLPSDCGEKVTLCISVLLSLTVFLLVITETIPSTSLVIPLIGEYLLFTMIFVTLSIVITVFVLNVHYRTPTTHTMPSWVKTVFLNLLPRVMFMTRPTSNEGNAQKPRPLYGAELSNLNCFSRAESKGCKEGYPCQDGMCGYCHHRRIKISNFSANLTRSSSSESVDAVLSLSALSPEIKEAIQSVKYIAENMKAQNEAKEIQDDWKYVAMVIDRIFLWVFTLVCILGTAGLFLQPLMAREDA
T7 sequence (P30926 22-498): as the sequence (P30926 22-498) above

h[α6V32L/α3]β4 = biological target: T8, h[α6V32L/α3]β4 (Homo sapiens, UniProt P30926+P32297+Q15825, V65L); settings: ACh on h[α6V32L/α3]β4
T8 construct: formed by splicing the N-terminal extracellular domain of the α6 subunit with the α3 subunit; human nAChR α3 subunit (CHRNA3); expressed in transfected cells; host or cells: Xenopus laevis oocytes injected with cRNA (plasmids from the University of Utah)
T8 sequence (Q15825+P32297 fused with the stated changes): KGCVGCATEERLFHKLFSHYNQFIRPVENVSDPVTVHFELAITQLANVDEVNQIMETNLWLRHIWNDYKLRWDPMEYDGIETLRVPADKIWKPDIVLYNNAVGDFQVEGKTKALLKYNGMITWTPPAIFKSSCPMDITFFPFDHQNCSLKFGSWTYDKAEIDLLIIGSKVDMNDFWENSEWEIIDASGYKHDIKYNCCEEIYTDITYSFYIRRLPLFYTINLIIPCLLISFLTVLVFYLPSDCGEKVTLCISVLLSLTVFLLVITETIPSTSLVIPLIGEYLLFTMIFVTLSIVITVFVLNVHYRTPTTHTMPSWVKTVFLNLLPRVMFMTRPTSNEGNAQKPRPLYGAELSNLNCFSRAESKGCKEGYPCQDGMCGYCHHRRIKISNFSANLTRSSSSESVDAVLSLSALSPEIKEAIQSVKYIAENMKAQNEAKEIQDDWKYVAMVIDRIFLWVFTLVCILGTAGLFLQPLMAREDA
T8 sequence (P30926 22-498): as the sequence (P30926 22-498) above

h[α6K61R/α3]β4 = biological target: T9, h[α6K61R/α3]β4 (Homo sapiens, UniProt P30926+P32297+Q15825, K94R); experiment: Electrophysiological assay, ACh concentration-response (Xenopus oocytes); settings: ACh on h[α6K61R/α3]β4
T9 construct: formed by splicing the N-terminal extracellular domain of the α6 subunit with the α3 subunit; human nAChR α3 subunit (CHRNA3); expressed in transfected cells; host or cells: Xenopus laevis oocytes injected with cRNA (plasmids from the University of Utah)
T9 sequence (Q15825+P32297 fused with the stated changes): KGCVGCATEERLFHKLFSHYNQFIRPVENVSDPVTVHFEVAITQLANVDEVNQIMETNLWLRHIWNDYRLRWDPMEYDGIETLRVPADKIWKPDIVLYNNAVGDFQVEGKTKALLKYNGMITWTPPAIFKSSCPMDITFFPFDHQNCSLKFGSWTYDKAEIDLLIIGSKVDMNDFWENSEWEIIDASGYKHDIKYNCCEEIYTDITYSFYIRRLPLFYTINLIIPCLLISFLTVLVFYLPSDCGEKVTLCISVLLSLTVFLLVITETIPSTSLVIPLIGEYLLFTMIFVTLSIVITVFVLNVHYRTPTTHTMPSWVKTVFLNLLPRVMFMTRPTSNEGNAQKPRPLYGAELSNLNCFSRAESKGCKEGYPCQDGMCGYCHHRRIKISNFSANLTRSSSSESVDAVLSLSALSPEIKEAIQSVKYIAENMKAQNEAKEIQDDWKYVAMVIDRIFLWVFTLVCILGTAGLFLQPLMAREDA
T9 sequence (P30926 22-498): as the sequence (P30926 22-498) above

h[α6R3Q/α3]β4 = biological target: T10, h[α6R3Q/α3]β4 (Homo sapiens, UniProt P30926+P32297+Q15825, R36Q); experiment: as above; settings: ACh on h[α6R3Q/α3]β4
T10 construct: formed by splicing the N-terminal extracellular domain of the α6 subunit with the α3 subunit; human nAChR α3 subunit (CHRNA3); expressed in transfected cells; host or cells: Xenopus laevis oocytes injected with cRNA (plasmids from the University of Utah)

h[α6Q14R/α3]β4 = biological target: T11, h[α6Q14R/α3]β4 (Homo sapiens, UniProt P30926+P32297+Q15825, Q47R); settings: ACh on h[α6Q14R/α3]β4
T11 construct: formed by splicing the N-terminal extracellular domain of the α6 subunit with the α3 subunit; human nAChR α3 subunit (CHRNA3); expressed in transfected cells; host or cells: Xenopus laevis oocytes injected with cRNA (plasmids from the University of Utah)

h[α6K81N/α3]β4 = biological target: T12, h[α6K81N/α3]β4 (Homo sapiens, UniProt P30926+P32297+Q15825, K114N); settings: ACh on h[α6K81N/α3]β4
T12 construct: formed by splicing the N-terminal extracellular domain of the α6 subunit with the α3 subunit; fusion partner: remainder of the human α3 subunit (CHRNA3); expressed in transfected cells; host or cells: Xenopus laevis oocytes injected with cRNA

h[α6S10A/α3]β4 = biological target: T13, h[α6S10A/α3]β4 (Homo sapiens, UniProt P30926+P32297+Q15825, S43A); settings: ACh on h[α6S10A/α3]β4
T13 construct: formed by splicing the N-terminal extracellular domain of the α6 subunit with the α3 subunit; human nAChR α3 subunit (CHRNA3); expressed in transfected cells; host or cells: Xenopus laevis oocytes injected with cRNA (plasmids from the University of Utah)

h[α6K7T/α3]β4 = biological target: T14, h[α6K7T/α3]β4 (Homo sapiens, UniProt P30926+P32297+Q15825, K40T); experiment: Electrophysiological assay, ACh concentration-response (Xenopus oocytes); settings: ACh on h[α6K7T/α3]β4
T14 construct: formed by splicing the N-terminal extracellular domain of the α6 subunit with the α3 subunit; human nAChR α3 subunit (CHRNA3); expressed in transfected cells; host or cells: Xenopus laevis oocytes injected with cRNA (plasmids from the University of Utah)
T14 sequence (Q15825+P32297 fused with the stated changes): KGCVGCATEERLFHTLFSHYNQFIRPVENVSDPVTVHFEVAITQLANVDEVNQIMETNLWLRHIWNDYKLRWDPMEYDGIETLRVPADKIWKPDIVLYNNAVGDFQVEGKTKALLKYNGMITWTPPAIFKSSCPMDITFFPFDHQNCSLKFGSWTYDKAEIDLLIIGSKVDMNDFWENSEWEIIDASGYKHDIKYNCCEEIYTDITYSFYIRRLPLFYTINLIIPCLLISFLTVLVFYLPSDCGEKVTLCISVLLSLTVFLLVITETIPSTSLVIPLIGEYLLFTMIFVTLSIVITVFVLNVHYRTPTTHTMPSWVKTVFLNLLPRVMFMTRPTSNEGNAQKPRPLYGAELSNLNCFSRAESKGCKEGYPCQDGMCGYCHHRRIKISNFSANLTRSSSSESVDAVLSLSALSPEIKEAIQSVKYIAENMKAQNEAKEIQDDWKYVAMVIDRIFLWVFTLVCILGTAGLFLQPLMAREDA
T14 sequence (P30926 22-498): as the sequence (P30926 22-498) above

h[α6M67T/α3]β4 = biological target: T15, h[α6M67T/α3]β4 (Homo sapiens, UniProt P30926+P32297+Q15825, M100T); settings: ACh on h[α6M67T/α3]β4
T15 construct: formed by splicing the N-terminal extracellular domain of the α6 subunit with the α3 subunit; fusion partner: remainder of the human α3 subunit (CHRNA3); expressed in transfected cells; host or cells: Xenopus laevis oocytes injected with cRNA

Question: How did the “Hill Slope” value (h[α6M112V/α3]β4) turn out when `CC(=O)OCC[N+](C)(C)C` [ACh, acetylcholine chloride] was run?
Answer: 1.4 (1.1–1.8)

Question: What about the “Hill Slope” value (h[α6V32L, K61R/α3]β4) of the same compound?
Answer: 1.2 (1.1–1.3)

Question: What about the “Hill Slope” value [1] of the same compound?
Answer: 1.2 (1.0–1.5)

Question: And the “Hill Slope” value (h[α6R63C/α3]β4)?
Answer: 1.5 (1.2–1.8)

Question: And the “Hill Slope” value (h[α6N58K/α3]β4)?
Answer: 1.4 (1.2–1.7)

Question: And the “Hill Slope” value (h[α6N110D/α3]β4)?
Answer: 1.2 (0.9–1.6)

Question: What about the “Hill Slope” value (h[α6I176V/α3]β4) of the same compound?
Answer: 1.7 (1.4–2.1)

Question: And the “Hill Slope” value (h[α6V32L/α3]β4)?
Answer: 1.5 (1.3–1.9)

Question: What about the “Hill Slope” value (h[α6K61R/α3]β4) of the same compound?
Answer: 1.4 (1.2–1.7)

Question: And the “Hill Slope” value (h[α6R3Q/α3]β4)?
Answer: 1.4 (1.2–1.8)

Question: What about the “Hill Slope” value (h[α6Q14R/α3]β4) of the same compound?
Answer: 1.4 (1.2–1.6)

Question: What about the “Hill Slope” value (h[α6K81N/α3]β4) of the same compound?
Answer: 1.4 (1.3–1.7)

Question: What about the “Hill Slope” value (h[α6S10A/α3]β4) of the same compound?
Answer: 1.6 (1.2–2.3)

Question: What about the “Hill Slope” value (h[α6K7T/α3]β4) of the same compound?
Answer: 1.5 (1.1–1.9)

Question: And the “Hill Slope” value (h[α6M67T/α3]β4)?
Answer: 1.4 (0.9–2.2)
